Structures can show the parent of a compound that is named as a salt. Where two headings read alike, the source gives them in different places.
Tested on: PRKACA-PRKAR2A interaction (SmBiT-PRKACA / LgBiT-PRKAR2A), protein kinase A
Set-up: NanoLuc complementation counter-screen in cell extract, PRKACA with PRKAR2A, loss of luminescence, detects NanoLuc interference
Conditions: 0.5 h, 20 µM, inhibitor
[1] = counter-screen for NanoLuc interference
[2] = counter-screen for NanoLuc interference, Inh (PKA)

Compound	Inh (PKA) [1]	other results
Cc1cc(C)c(Nc2ccnc(Nc3ccc(C#N)cc3)n2)c(C)c1 [UM0142086:01, Dapivirine (TMC120)]	39.35%	–
COc1ncc(-c2ccc3nccc(-c4ccnnc4)c3c2)cc1NS(=O)(=O)c1ccc(F)cc1F [UM0142087:01, GSK2126458]	7.374%	–
CNC(=O)c1ccccc1Nc1nc(Nc2ccc(N3CCOCC3)cc2OC)ncc1Cl [UM0142088:01, TAE226 (NVP-TAE226)]	15.32%	–
CC[C@@H]1C(=O)N(C)c2cnc(Nc3ccc(C(=O)N[C@H]4CC[C@H](N5CCN(CC6CC6)CC5)CC4)cc3OC)nc2N1C(C)C [UM0142089:01, BI6727 (Volasertib)]	8.077%	–
CC(C)[C@H](CO)Nc1nc(Nc2ccc(C(=O)O)c(Cl)c2)c2ncn(C(C)C)c2n1 [UM0142090:01, Purvalanol B]	25.51%	–
C[C@H]1CO[C@@H]2Cn3cc(C(=O)NCc4ccc(F)cc4F)c(=O)c(O)c3C(=O)N12 [UM0142091:01, GSK744 (S/GSK1265744)]	7.532%	–
N#Cc1ccc(OC2CCC(NC(=O)CCSc3nc4ccccc4c(=O)[nH]3)CC2)cc1 (stereo not drawn) [UM0142092:01, Tankyrase Inhibitors (TNKS) 49]	5.667%	–
Cc1[nH]nc2ccc(-c3cncc(OC[C@@H](N)Cc4ccccc4)c3)cc12 [UM0142094:01, A-674563]	19.6%	–
NC1(Cc2ccc(Cl)cc2)CCN(c2ncnc3[nH]ccc23)CC1 [UM0142095:01, CCT128930]	38.25%	–
Cc1ccccc1CN1C(=O)C2=C(CCN(Cc3ccccc3)C2)N2CCN=C12 [UM0142096:01, TIC10]	–	Inh (PKA): 4.346
COc1cc(N2CCC(N)CC2)ccc1Nc1ncc(Cl)c(-c2c[nH]c3ccccc23)n1 [UM0142097:01, AZD-3463]	51%	–
C[C@]12CC[C@H](O)CC1=CC[C@@H]1[C@@H]2CC[C@]2(C)C(n3cnc4ccccc43)=CC[C@@H]12 [UM0142098:01, TOK-001]	15.03%	–
O=C(NC(NC(=S)Nc1ccc(F)c([N+](=O)[O-])c1)C(Cl)(Cl)Cl)C(c1ccccc1)c1ccccc1 (stereo not drawn) [UM0142099:01, CGK733]	35.68%	–
O=C(/C=C/c1cccnc1)NCCCCC1CCN(C(=O)c2ccccc2)CC1 [UM0142102:01, FK 866 hydrochloride]	–	Inh (PKA) [2]: 0.5645%
CN1CCN(c2ccc(Nc3cc(-c4cccc(-n5ccc6cc(C7CC7)cc(F)c6c5=O)c4CO)cn(C)c3=O)nc2)CC1 [UM0142104:01, RN486]	0.8611%	–
O=C(NCc1ccc(Oc2ccccc2)cc1)c1nc(-c2cc(Br)c(O)c(Br)c2)no1 [UM0142105:01, IOWH-032]	17.03%	–
Cc1cnc(NC(=O)Nc2cc(Br)c(C)cc2OC[C@@H]2CNCCO2)cn1 [UM0142106:01, LY2603618]	6.637%	–
CN1CC[C@H](c2c(O)cc(O)c3c(=O)cc(-c4ccccc4Cl)oc23)[C@H](O)C1 [UM0142107:01, Flavopiridol hydrochloride]	4.692%	–
CN(C)C(=O)c1cc2cnc(Nc3ccc(N4CCNCC4)cn3)nc2n1C1CCCC1 [UM0142108:01, LEE011]	5.257%	–
CCCCCOC(=O)Nc1nc(=O)n([C@@H]2O[C@H](C)[C@@H](O)[C@H]2O)cc1F [UM0142109:01, Capecitabine]	3.507%	–
N#C[C@@H]1C[C@@H]2C[C@@H]2N1C(=O)[C@@H](N)C12CC3CC(CC(O)(C3)C1)C2 [UM0142110:01, Saxagliptin]	1.3%	–

Compound	Inh (PKA) [1]	other results
Cc1nn(-c2ccccc2)c(C)c1/C=N/N1CCN(Cc2ccccc2)CC1 [UM0142111:01, SANT-1]	15.15%	–
CC(C)[C@H]1C(=O)N[C@@H](CCCNC(=N)N)C(=O)NCC(=O)N[C@@H](CC(=O)O)C(=O)N[C@H](Cc2ccccc2)C(=O)N1C [UM0142112:01, Cilengitide]	0.5722%	–
O=C1NCCCc2c1oc1ccc(O)cc21 [UM0142113:01, CID 755673]	2.979%	–
CC[C@@H](N)CNc1ccnc(-c2cc(-c3cnn(C)c3)ccc2O)n1 [UM0142114:01, CRT 0066101]	18.6%	–
O=c1ncn2nc(Sc3ccc(F)cc3F)ccc2c1-c1c(Cl)cccc1Cl [UM0142117:01, VX-745]	8.434%	–
CN(c1ccccc1CNc1nc(Nc2ccc3c(c2)CC(=O)N3)ncc1C(F)(F)F)S(C)(=O)=O [UM0142118:01, PF-431396]	63.93%	–
FC(F)(F)Oc1ccc2nc(-c3ccc(OCCOCCOc4ccc(-c5nc6ccc(OC(F)(F)F)cc6[nH]5)nc4)cn3)[nH]c2c1 [UM0142119:01, AI-10-49]	39.19%	–
C=CC(=O)Nc1ccc(CN2C(=O)N(c3cc(OC)cc(OC)c3)Cc3cnc(Nc4ccc(N5CCN(C)CC5)cc4)nc32)cc1 [UM0142120:01, FIIN-2]	9.452%	–
CC(C)(C)C(O)/C=C/c1ccc2c(c1)OCO2 (stereo not drawn) [UM0142121:01, Stiripentol]	12.44%	–
C=CC(=O)Nc1cccc(C)c1Nc1ncc2cc(-c3c(Cl)c(OC)cc(OC)c3Cl)ccc2n1 [UM0142122:01, BLU9931]	48.23%	–
CCCC[S+]([O-])c1sc2nc(-c3cccs3)cc(-c3ccccc3)c2c1N (stereo not drawn) [UM0142124:01, SW033291]	33.39%	–
CC(C)(CCCCCC(O)CCCCCC(C)(C)C(=O)O)C(=O)O [UM0142125:01, ETC-1002]	5.399%	–
CNC(=O)c1ccccc1Oc1nc(Nc2cc(OC)c(OC)c(OC)c2)ncc1Br [UM0142126:01, SBI-0206965]	34.96%	–
CNc1ncc2cc(-c3cc(NC(=O)NCCC(C)(C)C)c(F)cc3C)c(C)nc2n1 [UM0142127:01, LY3009120]	13.32%	–
CN(C)C/C=C/C(=O)Nc1cccc(C(=O)Nc2cccc(Nc3ncc(Cl)c(-c4c[nH]c5ccccc45)n3)c2)c1 [UM0142128:01, THZ2]	74.86%	–
CN1CCN(C(=O)c2ccc3cc(CCNc4ncnc5ccc(C#N)cc45)ccc3c2)CC1 [UM0142129:01, Senexin B]	3.385%	–
CN1C(=O)c2sccc2N(C)c2nc(Nc3ccc(S(N)(=O)=O)cc3)ncc21 [UM0142130:01, XMU-MP-1]	6.005%	–
Cc1c(-c2c(-c3ccc(F)o3)sc3ncnc(O[C@H](Cc4ccccc4OCc4ccnn4CC(F)(F)F)C(=O)O)c23)ccc(OCCN2CCN(C)CC2)c1Cl [UM0142131:01, S63845]	20.59%	–
COc1ccc(S(=O)(=O)N2CCC(N3CCC(C)CC3)CC2)cc1 [UM0142132:01, TASIN-1]	4.343%	–
Cn1c2ccccc2c2c3c(c4c5ccccc5n(CCC#N)c4c21)C(=O)NC3=O [UM0142134:01, ICP 103]	13.04%	–
Nc1cc(F)ccc1NC(=O)/C=C/c1cnn(C/C=C/c2ccccc2)c1 [UM0142135:01, RGFP966]	7.983%	–

Compound	Inh (PKA) [1]	other results
O=C(NCC1(c2nc(-c3ccccc3)cs2)CCOCC1)c1cccc(-c2noc(C(F)(F)F)n2)c1 [UM0142136:01, TMP269]	21.99%	–
O=C(c1cccc(Cl)c1F)N1CCN(Cc2cccc(Nc3nccs3)n2)CC1 [UM0142137:01, MK-8745]	20.15%	–
CSc1cccc(Nc2ncc3cc(-c4c(Cl)cccc4Cl)c(=O)n(C)c3n2)c1 [UM0142139:01, PD173955]	37.99%	–
CCCCCCCCCCCCCCCCn1cc[n+](Cc2ccccc2)c1C [UM0142140:01, NH125]	8.181%	–
C=CC(=O)Nc1cccc(Oc2nc(Nc3ccc(N4CCN(C)CC4)cc3)ncc2Cl)c1 [UM0142142:01, WZ3146]	33.46%	–
CN(C)C/C=C/C(=O)Nc1ccc(C(=O)Nc2cccc(Nc3ncc(Cl)c(-c4c[nH]c5ccccc45)n3)c2)cc1 [UM0142143:01, THZ1]	81.51%	–
C[C@@H]1COCCN1c1cc(=O)n2c(n1)N(Cc1cncc(Cl)c1)[C@H](C(F)(F)F)CC2 [UM0142144:01, SAR405]	7.192%	–
O=C1N=C(NCc2cccs2)S/C1=C\c1ccc2ncccc2c1 [UM0142145:01, Ro 3306]	23.14%	–
CN1CCC(Nc2nc(Nc3ccc(Oc4ccccc4)cc3)c3c(=O)[nH]cc(Br)c3n2)CC1 [UM0142146:01, G-749]	37.05%	–
Cc1nc(Nc2cnn(C3CCNCC3)c2)nc2c1N(C)C(=O)c1cc3ccccc3cc1N2C [UM0142147:01, HTH-01-015]	10.88%	–
CN(Cc1cccc(-c2ccncc2)c1)C(=O)Oc1ccc(-c2ccc(C(N)=O)cc2)cc1 [UM0142148:01, WWL 70]	–	Inh (PKA): 11.8%
CNCc1ccc(-c2[nH]c3cc(F)cc4c3c2CCNC4=O)cc1 [UM0142149:01, Rucaparib (free base)]	–	Inh (PKA) [2]: 8.491%
COC(=O)C[C@H](NC(=O)[C@H](C)NC(=O)[C@@H](NC(=O)[C@H](Cc1ccc(O)cc1)NC(=O)OCc1ccccc1)C(C)C)C(=O)CF [UM0142151:01, Z-YVAD-FMK]	2.926%	–
Cc1nn(C)c2c1C(c1ccc(C(F)(F)F)cc1)C(C#N)=C(N)O2 (stereo not drawn) [UM0142152:01, BQU57]	14.94%	–
O=CC[C@@H](O)[C@H](O)[C@H](O)CO [UM0142158:01, 2-Deoxy-D-glucose]	1.529%	–
Cc1c(-c2ccnn2C)cc(C(=O)NCc2ccc(S(C)(=O)=O)cn2)c(=O)n1-c1cccc(C(F)(F)F)c1 [UM0142161:01, Alvelestat]	0.5125%	–
O=C(O)c1ccc(-c2c[nH]c3ncc(-c4ccccc4)cc23)cc1C1CCCC1 [UM0142163:01, GSK 650394]	18.1%	–
CCOC(=O)[C@H](C)C[C@@H](Cc1ccc(-c2ccccc2)cc1)NC(=O)CCC(=O)O [UM0142165:01, AHU-377(Sacubitril)]	–	Inh (PKA) [2]: 9.484%
COc1ccc(-c2ccccc2)cc1NS(=O)(=O)c1cc(Cl)cc(Cl)c1O [UM0142166:01, BMS-303141]	65.56%	–
COc1cccc(OCCCN)c1-c1cc(Nc2cnc(C#N)cn2)n[nH]1 [UM0142169:01, LY2606368]	14.04%	–
C=CC(=O)Nc1cc(Nc2nccc(-c3cn(C)c4ccccc34)n2)c(OC)cc1N(C)CCN(C)C [UM0142170:01, AZD-9291]	6.598%	–

Source: PMC9995496, “A screen for MeCP2-TBL1 interaction inhibitors using a luminescence-based assay” (Scientific Reports, 2023)
